Source: patent US20060171944A1, “N-formyl peptide receptor mediation of platelet chemotaxis toward injured cells and activation of immune response” (priority 2002, published 2006)
Square brackets hold non-standard residues; d marks the D form. Ends that are not written are not given here. * marks the point of attachment. Nle = CCCC[C@H](N)C(=O)O; For = O=C*

Legend:
[1] = target: T1, N-formyl peptide receptors on human platelets (Homo sapiens, UniProt P21462); assay: Flow cytometry of fluorescein-conjugated peptide binding to human platelets; conditions: 10^−7 M peptide; platelets treated with 0, 0.001, 0.1 or 10 U thrombin
T1 construct: Platelet-rich plasma was prepared from whole blood by differential centrifugation; endogenous in cells
T1 sequence (P21462 1-350): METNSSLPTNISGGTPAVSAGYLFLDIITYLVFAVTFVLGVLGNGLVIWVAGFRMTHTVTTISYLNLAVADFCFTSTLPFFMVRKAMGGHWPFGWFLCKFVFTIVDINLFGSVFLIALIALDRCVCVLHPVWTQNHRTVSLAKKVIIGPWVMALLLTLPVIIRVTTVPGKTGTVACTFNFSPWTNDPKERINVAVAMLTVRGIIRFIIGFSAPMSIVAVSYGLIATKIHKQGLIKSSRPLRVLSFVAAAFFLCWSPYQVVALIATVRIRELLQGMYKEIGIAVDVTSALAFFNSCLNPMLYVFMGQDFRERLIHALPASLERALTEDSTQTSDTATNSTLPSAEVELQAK
Experimental: (§1) To test whether human platelets express N-formyl peptide receptors, the binding of identical fluorescein-conjugated peptides to human platelets was evaluated by flow cytometry, where one contained a formyl group N-formyl-Nle-Leu-Phe-Nle-Tyr-Lys (fNLFNYK-fl) (SEQ ID NO:1), and the other without a formyl group Nle-Leu-Phe-Nle-Tyr-Lys (NLFNYK-fl) (SEQ ID NO:2). […] However, with permeabilization of non-activated platelets, fluorescein staining of granule-like particles was detected within the interior of platelets (FIG. 1d). […] Differential interference contrast (DIC) imaging (FIG. 1g insert) confirmed the presence of platelets.
Platelet-rich plasma was prepared from whole blood by differential centrifugation at 800×g for 5 min at 22° C. The top two-thirds of the platelet-rich plasma was removed and washed in PBS containing 1% fetal bovine serum. Washed platelets were activated with 0, 0.001, 0.1 or 10 U thrombin (Sigma, St. Louis, Mo.) for 10 min at 37° C. The platelets were then washed and incubated with 10^−7 M fluorescein conjugated N-formyl peptide; fNLFNYK-fl (SEQ ID NO:1; Molecular Probes, Eugene, Oreg.) or 10^−7 M fluorescein conjugated non-N-formylated peptide; NLFNYK-fl (SEQ ID NO:2; New England Peptide, Fitchburg, Mass.) for 30 min at room temperature. […] Samples were analyzed on a Becton Dickinson (Franklin Lakes, N.J.) FASCcalibur/CELLQuest system. […]

[2] = target: T1, N-formyl peptide receptors on human platelets; assay: Confocal microscopy of fluorescein-conjugated peptide binding to human platelets; conditions: 10^−6 M peptide; thrombin-activated platelets
Experimental: as §1
Platelet-rich plasma was prepared as mentioned above. Washed platelets were activated with either 1 or 10 U thrombin (Sigma) for 10 min at 37° C. The platelets were washed two times and fixed with 4% paraformaldehyde for 20 min at 4° C. The platelets were then washed and permeablized with 100% methanol for 15 min at 4° C. […] The platelets were washed two times, spun onto cover slips, and mounted with ProLong® Antifade Kit (Molecular Probes). Confocal images were collected on a Leica TCS-NT/SP confocal microscope (Leica Microsystems, Exton, Pa.) using a 100-x oil emersion objective NA 1.4, zoom 2. Representative images from three independent experiments are shown (FIG. 2).

[3] = system: human platelets; assay: Platelet chemotaxis by transwell migration (ChemoTx microplate); format: cell-based; conditions: for chemotaxis of thrombin-activated platelets toward peptide: 10^−6 and 10^−7 M peptide, 10 U thrombin, P<0.001
Experimental: The chemotactic activity of activated and non-activated platelets in response to different concentrations of fMLF by transwell migration (FIG. 4a) was determined. […] Both thrombin-activated and non-activated platelet migration followed a concentration-response curve that was greatest at 10^−6 M fMLF (27.2±12) in the thrombin-activated platelets and 10^−7 M fMLF (11.5±6.5) in the non-activated platelets (FIG. 4a). […] Next the dependence of platelet chemotaxis on the presence of a Formyl group on the peptide was tested. […] Non-activated platelets behaved similarly. Thus, the presence of a Formylgroup was essential for FPR binding, calcium mobilization and platelet chemotaxis.
Platelet migration was assessed using a 96-well ChemoTx® microplate (Neuro Probe, Gaithersburg Md.). For all chemotaxis experiments, different concentrations of stimulants were placed in the bottom wells of the microplate and the filter was positioned (2 μm pore size). The cell suspension was seeded onto the top of the filter (30 μl) and the microplates were incubated for 2 hrs at 37° C. For all chemokinesis experiments, different concentrations of stimulants were placed in the bottom wells of the microplate and the filter was positioned. The cell suspension containing different concentrations of stimulants were placed on the filter (30 μl) in a gradient fashion. After incubation, the lid was removed and the filter was gently wiped with a cell harvester and carefully flushed with media to remove any of the non-migrated cells. The filter was then carefully removed and the migrated cells were counted by light microscopy. Results are expressed as the mean value (±SD) of total migrated cells, in triplicate samples, and are taken from five experiments independent.
Chemotactic responses were distinguished from chemokinetic responses by placing increasing concentrations of fMLF in the upper and lower chambers of the transwell plates (Table 1).
There was no enhanced cell migration when higher concentrations of fMLF were present in the upper wells or with equal concentrations of fMLF in both the upper and lower wells, as would be seen with chemokinesis.
Different concentrations of fMLF were placed in the upper and/or lower wells of the chemotaxis plate; platelets at 10^6 cells/ml were placed on the upper filter. After a 2-hour incubation, the non-migrated cells were removed and the cells that migrated across the filter were counted. The results are expressed as the mean value (±SD) of the migrated cells in at least six separate experiments (n=24). Grey shading indicates wells containing a greater concentration of fMLF in the lower well compared to the upper well. Platelet migration in transwells maintaining a gradient of fMLF between chambers were compared with wells containing equimolar concentrations of fMLF in both chambers (p<0.002, Student's t-test)

[4] = system: human platelets; assay: Intracellular free calcium in fura-2 loaded platelets; format: cell-based; conditions: for calcium signal: thrombin-activated as well as non-activated platelets, 1 U thrombin, 10^−6 M peptide
Experimental: Washed platelets were activated with either 0 U or 1 U thrombin (Sigma) for 10 min at 37° C. Fura-2 loaded platelets were prepared by incubating the platelets, for 45 min with fura-2 acetoxymethyl ester at 37° C. The dye-loaded platelets were washed and resuspended in calcium-free HBSS standard solution. The cells were then transferred into quartz cuvettes (10^9 cells in 2 ml), which were placed in a model MS-III spectrofluorometer (Photon Technologies, Inc.; South Brunswick, N.J.) and continuously stirred at 37° C. Stimulants were added in a 2 μl volume at indicated time points. The ratios of fluorescence at excitation wavelengths 340 and 380 nm and emission wavelength at 510 nm were calculated using FeliX fluorescence analysis software (Photon Technology Instruments; London, Ontario, Canada). Representative traces from at least six independent experiments are shown.

[5] = system: MEG-01 cells; assay: RT-PCR of FPR and FPRL-1 in MEG-01 cells; format: cell-based, human; conditions: 10^−7 M PMA for 5 days
Experimental: To further confirm that platelets express human N-formyl peptide receptors (FPR), RT-PCR of RNA harvested from the megakaryocytic cell line MEG-01 was performed. […] Treatment of MEG-01 cells with phorbol 12-myristate 13-acetate (PMA) induced differentiation with production of platelet-like structures^36. RNA harvested from HL60 cells, a promyelocytic cell line that expresses both FPR and FPRL 1, is shown in lane 1 (RT included), lane 2 (RT excluded), and lane 3 (RNA excluded) (FIG. 2a). […] RT-PCR generated bands were confirmed to encode the FPR or FPRL1 by sequence analysis. FPR protein expression in platelets was shown by immunoblotting with FPR specific antibody.
Total RNA was isolated using Ultraspec RNA isolation system (Biotecx Laboratories Inc., Houston Tes.), according to the manufacturer's protocol. To confirm purity of the product RNA, absorption ratios at 260/280 nm were determined to be […] for all samples. The samples were adjusted to 200 ng/μl for reverse transcription and PCR according to absorption at 260 nm. Total RNA was reversed-transcribed using Thermoscript RT (GibcoBRL, Gaithersburg, Md.). Conditions for PCR amplification of the resulting first-strand DNA template involved preheating a mixture of Taq DNA polymerase (5 U/ml) (GibcoBRL), primers, cDNA, and PCR components to 95° C. for 5 min before amplification. […]

[6] = system: Hep-2 cells; assay: Induction of apoptosis in Hep-2 cells, scored by H-33342/SYTOX staining; format: cell-based; conditions: 1 μM for 5 hours
Experimental: Hep-2-cells were grown in DMEM medium supplemented with 10% FCS. Before each experiment, the cells were washed and the media was replaced with serum-free DMEM. After adaptation to this medium, cells were exposed to repeated freeze/thaw or UV radiation (1000J) in a UV Stratalinker UV oven (Stratagene) to induce necrosis. To induce apoptosis, cells were treated with 1 μM staurosporine (STS) for 5 hours. After the treatments, the cells were placed into a tissue culture incubator overnight. The supernatant was collected and used for experimentation and the cells were stained with a mixture of the membrane permeant dye H-33342 (500 ng/ml) and the membrane impermeant dye SYTOX (500 nM) (Molecular Probes; Eugene, Oreg.). Necrotic (damaged plasma membrane; non-condensed nuclei) and apoptotic (intact plasma membrane; characteristically condensed or fragmented nuclei) cells were scored. Necrotic cells after UV radiation=84%. Apoptotic cells after STS treatment=80%.

Nle-Leu-Phe-Nle-Tyr-Lys ([Nle]LF[Nle]YK-fluorescein) [NLFNYK-fl, fluorescein conjugated non-N-formylated peptide (New England Peptide)]
binding of fluorescein-conjugated peptide to platelets by flow cytometry [1]: non-specific and did not increase with thrombin activation | binding of fluorescein-conjugated peptide to platelets by confocal microscopy [2]: no binding | chemotaxis of thrombin-activated platelets toward peptide [3]: failed to induce significant chemotaxis

MLF: the non formyl peptide, MLF
calcium signal [4]: failed to elicit a calcium signal

For-[Nle]LF[Nle]YK [fNLFNYK-fl]
binding of fluorescein-conjugated peptide to platelets by flow cytometry [1]: increased binding with increased thrombin activation | binding of fluorescein-conjugated peptide to platelets by confocal microscopy [2]: upregulation of external N-formyl peptide binding with platelet activation | chemotaxis of thrombin-activated platelets toward peptide [3]: significantly more migration

thrombin
calcium signal [4]: induced a calcium signal

CCCCCCCCCCCCCC(=O)O[C@@H]1[C@@H](C)[C@@]2(O)[C@@H](C=C(CO)C[C@]3(O)C(=O)C(C)=C[C@@H]23)[C@@H]2C(C)(C)[C@]12OC(C)=O [PMA, phorbol 12-myristate 13-acetate]
FPR and FPRL-1 mRNA expression after induced megakaryocyte differentiation [5]: transactivation of the genes encoding both the FPR and FPRL-1

N-formyl-methionine-leucine-phenalanine [fMLF]
checkerboard analysis: chemotaxis versus chemokinesis ([3]; fMLF in upper and/or lower wells, 2-hour incubation): directed migration and not chemokinesis | platelet migration, mean value (±SD) of migrated cells ([3]; non-activated platelets, 10^−7 M fMLF (greatest response)): 11.5±6.5 | platelet migration, mean value (±SD) of migrated cells ([3]; thrombin-activated platelets, 10^−6 M fMLF (greatest response)): 27.2±12 | calcium signal after pretreatment with thrombin ([4]; pretreatment with thrombin (1 U), then fMLF stimulation): greater fluorescent signal | calcium signal [4]: induced a calcium signal

CN[C@@H]1C[C@H]2O[C@@](C)([C@@H]1OC)n1c3ccccc3c3c4c(c5c6ccccc6n2c5c31)C(=O)NC4 [STS, staurosporine]
platelet calcium flux response to thrombin after incubation with STS ([4]; platelets incubated with STS directly): capable of subsequent calcium flux responses to thrombin | apoptotic cells after treatment [6]: 80%
